The test system of assay [1] is stress granule formation in HeLa cells stably expressing G3BP1-GFP. The assay can be described thus: Preincubation, arsenite-induced stress granule formation, live cell imaging in HeLa. The format is cell-based. The following applies: Homo sapiens, 20 min pretreatment, 250 μM NaAsO2, read-out: inhibition of stress granule formation compared with inactive enantiomer. The procedure:
For preincubation of compounds, U2OS or HeLa cells stably expressing G3BP1-GFP or CRISPR-modified cells expressing TDP-43-GFP/G3BP1-GFP were seeded into eight-well Lab-Tek chambered cover glass (Nunc). At least 20 min prior to the experiment, 1 ml FluoroBrite DMEM media (Gibco) supplemented with 10% FBS and 4 mM L-glutamine was combined with 0.1% DMSO or G3I compound (5, 10, or 50 μM). This solution was vortexed for 5 s, added to the cells at 250 μl per well, and left to incubate on the microscope for 20 min. Conditions were maintained at 37°C and 5% CO2 using a Bold Line Cage Incubator (Okolab) and an objective heater (Bioptechs). During this incubation time, 5 xy fields were stored per condition, with each field having ∼20–30 cells within it. After the 20-min incubation, 250 μl of 500 μM or 1 mM (2×) sodium arsenite (Sigma-Aldrich) diluted in the FluoroBrite media with an appropriate amount of G3I compound or DMSO was added to the sample. Imaging began immediately after, with images at each xy field being taken every 1 min. For heat shock experiments, U2OS G3BP1-GFP-expressing cells were seeded into a 35-mm glass bottom dish (MatTek). Prior to the experiment, 1.5 ml FluoroBrite DMEM media (Gibco) supplemented with 10% FBS and 4 mM L-glutamine was combined with 0.1% DMSO or 50 μM G3I compound. The sample was incubated on the environmentally controlled microscope for 20 min. […]

The target in assay [2] is T1, interaction between G3BP1 and endogenous USP10 (Homo sapiens, UniProt Q13283).
T1 construct: expressed in transfected cells; host or cells: U2OS cells stably expressing G3BP1-GFP (lysate)
T1 sequence (Q13283 whole entry): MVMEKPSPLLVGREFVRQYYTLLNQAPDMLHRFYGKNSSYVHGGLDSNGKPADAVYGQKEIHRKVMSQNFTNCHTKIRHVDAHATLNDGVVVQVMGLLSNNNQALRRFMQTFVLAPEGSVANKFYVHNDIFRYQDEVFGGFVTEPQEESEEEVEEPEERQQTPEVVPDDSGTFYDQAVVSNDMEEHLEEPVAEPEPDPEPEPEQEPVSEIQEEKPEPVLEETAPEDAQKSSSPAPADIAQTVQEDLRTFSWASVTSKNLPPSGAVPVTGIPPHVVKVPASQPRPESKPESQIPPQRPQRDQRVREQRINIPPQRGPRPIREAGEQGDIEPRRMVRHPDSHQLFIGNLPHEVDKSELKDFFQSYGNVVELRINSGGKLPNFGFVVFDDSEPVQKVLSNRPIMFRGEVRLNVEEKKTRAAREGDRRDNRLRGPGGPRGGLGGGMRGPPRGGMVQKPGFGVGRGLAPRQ
The assay can be described thus: Coimmunoprecipitation of G3BP1-GFP with endogenous USP10 in U2OS lysates. The format is biochemical. As to conditions: increasing concentrations added to U2OS G3BP1-GFP lysates, GFP IP. Here is the method:
U2OS cells expressing G3BP1-GFP were grown in 3-cm dishes to 100% confluency, at which point cells were collected and pelleted at 400 × g for 5 min. Pellets were either stored at −80°C or processed the same day by lysing with 200 μl in vivo lysis buffer (150 mM NaCl, 50 mM Tris [pH 7.5], 1 mM EDTA, 0.5% NP-40, and 10% glycerol, supplemented with 1 protease inhibitor tablet [11836170001; Roche]). Lysates were centrifuged at 13,000 × g at 4°C for 15 min, after which supernatants were transferred to a new tube and diluted with 200 μl lysis buffer containing indicated concentrations of G3I compounds. The mixture was then incubated with GFP-Trap (ChromoTek GFP-Trap Magnetic Agarose; Proteintech; gtma) for 2 h at 4°C. Beads were washed three times with lysis buffer, then incubated with 1× SDS sample buffer supplemented with 10% 2-mercaptoethanol, and boiled for 5 min at 95°C. Lysates were subjected to SDS-PAGE and then immunoblotted.
Samples were separated by SDS-PAGE and transferred to membranes. […] Membranes were visualized and quantified with an Odyssey Fc imaging system (LI-COR) and normalized to the amount of G3BP1 immunoprecipitated.

One may read the inhibition as the change of the read-out against control, counted positive when it falls. Turning to `COCCC(NC(=O)C(C)NC(=O)C(NC(=O)C(NC(=O)C(F)CC(C)(C)C)C(C)(C)O)C(C)c1ccccc1)C(=O)N(C)Cc1ccccc1` (stereo not shown) [G3Ia], the inhibition at 50 µM in assay [1] is roughly 72%.
With `CC(NC(=O)C(NC(=O)C(NC(=O)CCC(C)(C)C)C(C)(C)O)C(C)c1ccccc1)C(=O)N1CCCC1c1ccccc1` (stereo not shown) [G3Ib], in assay [1], the inhibition at 50 µM was roughly 82%. In assay [2], the “interaction between G3BP1 and endogenous USP10” value is given as “dose-dependent reduction”.
Turning to `CC(NC(=O)C(NC(=O)C(NC(=O)CCC(C)(C)C)C(C)(C)O)C(C)c1ccccc1)C(=O)N1CCCC1c1ccccc1` (stereo not shown) [G3Ib′], the “interaction between G3BP1 and endogenous USP10” value in assay [2] is “no such effect”.

Source of the values: article PMC10824102, “Identification of small molecule inhibitors of G3BP-driven stress granule formation” (The Journal of Cell Biology, 2024).
